Earlier results on one compound are cited in patent US10285597B2 (dated 2019).

For the series the following is noted: TOL relative to TOSS (Ain=1 by definition); according to Bouillon et al., Anesthesiology 2004; 101: A503.

For `CC(C)c1cccc(C(C)C)c1O` [propofol], the “C50 ratio of propofol for the tolerance of laryngoscopy as well as tolerance of shaking and loud shouting (stimulus intensity Ain for TOL)” value was 2.83.
